Active and inactive are the calls of the source. The calls are words filed in the database; no cut-off is given here.

Experiment [1] deals with Phosphodiesterase, PDE1/PDE5 (Homo sapiens, UniProt O76074+P54750+Q01064+Q14123). The experiment can be described thus: Inhibitory activity against phosphodiesterase 1/5 (PDE1/5) extracted from guinea pig trachea smooth muscle cells by using radioligands [3H]-cAMP or [3H]cGMP. The experiment is classed as tissue-based, Cavia porcellus. The following applies: target entry is the homologue from another species.

For experiment [2], the target named is Phosphodiesterase 4 (Homo sapiens, UniProt P27815+Q08499+Q07343+Q08493). In words: Inhibition of phosphodiesterase 4 extracted from human U937 cells by using radioligands [3H]-cAMP or [3H]cGMP. The experiment is classed as cell-free. The following applies: u-937.
In a further experiment the target is Phosphodiesterase 3 (Homo sapiens, UniProt Q14432+Q13370). The experiment can be described thus: Inhibition of Phosphodiesterase 3 extracted from dog aorta smooth muscle cells by using radioligands [3H]cAMP or [3H]-cGMP. On the set-up: species or system Canis lupus familiaris. The settings on record: target entry is the homologue from another species.
In experiment [3] the test system is Canis familiaris. The experiment can be described thus: Emetic effect in dogs administered at 0.03 mg/kg intravenously (No effect). Type of experiment: functional, organism-based. Details: dose 0.03 mg/kg. The following applies: Canis lupus familiaris.
For experiment [4], the system named is Canis familiaris. In words: Emetic effect in dogs administered at 3 mg/kg intravenously (No effect). Type of experiment: functional, organism-based. On the set-up: dose 3 mg/kg. The following applies: Canis lupus familiaris.
The next experiment relates to Rattus norvegicus. The experiment can be described thus: Inhibition of antigen-induced lung eosinophilia in ovalbumin sensitized brown-norway rats after oral administration. The experiment is classed as functional.
Experiment [5] concerns the target Phosphodiesterase 4 (Rattus norvegicus, UniProt P14270+P14646+P14644+P54748). The experiment can be described thus: Displacement of [3H]rolipram from rat brain membrane suspensions. Type of experiment: functional, tissue-based.
Experiment [6] relates to Canis familiaris. The experiment can be described thus: Emetic effect in dogs administered at 3 mg/kg intravenously (no effect). Type of experiment: functional, organism-based. On the set-up: dose 3 mg/kg. The settings on record: Canis lupus familiaris.

Regarding `COc1cc2c3c(c1)C(c1ccccc1)=N[C@@H](NC(=O)c1ccc(Cl)cc1)C(=O)N3CC2`, the IC50 in experiment [1] was 40 µM; at Phosphodiesterase 4 [2], 1.8 µM; at Phosphodiesterase 3, 62 µM.

As for `COc1ccccc1C(=O)N[C@@H]1N=C(c2ccccc2)c2cc(C)cc3c2N(CC3)C1=O`, the IC50 in experiment [1] was 71.7 µM; on Phosphodiesterase 4 [2], 0.76 µM; at Phosphodiesterase 3, more than 100 µM.

For `COc1ccc(C2CNC(=O)C2)cc1OC1CCCC1` (stereo not given), the result in the experiment on Canis familiaris [3] was inactive.

Consider `Cc1cc2c3c(c1)C(c1ccccc1)=N[C@@H](NC(=O)c1nnc4cc(C)nn4c1C)C(=O)N3CC2`, for which the figures for the IC50 (in experiment [1]; on Phosphodiesterase 4 [2]; on Phosphodiesterase 3) were more than 100 µM, 0.71 µM and more than 100 µM, respectively.

`Cc1cc2c3c(c1)C(c1ccccc1)=N[C@@H](NC(=O)c1ccc(Cl)cc1)C(=O)N3CC2`: the IC50 in experiment [1] is more than 100 µM; on Phosphodiesterase 4 [2], 1.25 µM; on Phosphodiesterase 3 it was 27 µM.

Turning to `Cc1cc2c3c(c1)C(c1ccccc1)=N[C@@H](NC(=O)c1cc(Cl)cc(Cl)c1)C(=O)N3CC2`, the IC50 in experiment [1] is more than 100 µM; at Phosphodiesterase 4 [2], 1.15 µM; on Phosphodiesterase 3 it was 43.7 µM.

With `O=C(NC1N=C(c2ccccc2)c2ccccc2NC1=O)c1cc2ccccc2[nH]1` (stereo not given), the IC50 at Phosphodiesterase 4 [2] and at Phosphodiesterase 3 was more than 100 µM throughout.

On to `O=C(N[C@H]1N=C(c2ccccc2)c2cccc3c2N(CC3)C1=O)c1cc2ccccc2[nH]1`, for which the values for the IC50 (in experiment [1]; at Phosphodiesterase 4 [2]; on Phosphodiesterase 3) were 100 µM, 100 µM and more than 100 µM, respectively.

Turning to `COc1cc2c3c(c1)C(c1ccccc1)=N[C@@H](NC(=O)c1cc4ccccc4cn1)C(=O)N3CC2`, the IC50 in experiment [1] was 65.3 µM; at Phosphodiesterase 4 [2], 1.62 µM; at Phosphodiesterase 3, 82 µM.

Regarding `O=C(N[C@@H]1N=C(c2ccccc2)c2cccc3c2N(CC3)C1=O)c1cc2ccccc2cn1`, the values for the half-maximal inhibitory concentration (IC50) (in experiment [1]; on Phosphodiesterase 4 [2]; on Phosphodiesterase 3) were more than 100 µM, 4.2 µM and more than 100 µM, respectively.

Turning to `O=C(NC1N=C(c2ccccc2F)c2cc(Cl)cc3c2N(CC3)C1=O)c1cc2ccccc2[nH]1` (stereo not given), the concentration for half-maximal inhibition (IC50) on Phosphodiesterase 4 [2] and on Phosphodiesterase 3 was more than 100 µM in each case.

Take `O=C(NC1N=C(c2ccccc2)c2cccc3c2N(CCC3)C1=O)c1cc2ccccc2[nH]1` (stereo not given): the IC50 (in experiment [1]; at Phosphodiesterase 4 [2]; on Phosphodiesterase 3) was more than 100 µM in each case.

`Cc1cc2c3c(c1)C(c1ccccc1)=N[C@@H](NC(=O)c1cc4ccccc4cn1)C(=O)N3CC2`: the IC50 in experiment [1] is more than 100 µM; at Phosphodiesterase 4 [2] it was 2.6 µM; at Phosphodiesterase 3, more than 100 µM; on Phosphodiesterase 4 [5] it was more than 3 µM. In the experiment with Canis familiaris [4], the outcome was inactive. For the same compound, the ED50 with Rattus norvegicus came to 10.7 mg/kg.

Take `O=C(N[C@@H]1N=C(c2ccccc2)c2cc(O)cc3c2N(CC3)C1=O)c1cc2ccccc2cn1`: the results for the IC50 (in experiment [1]; on Phosphodiesterase 4 [2]; at Phosphodiesterase 3) were more than 100 µM, 0.41 µM and more than 3.5 µM, respectively.

Consider `Cc1cc2c3c(c1)C(c1ccccc1)=N[C@@H](NC(=O)c1cc(Cl)c(N)c(Cl)c1)C(=O)N3CC2`, for which the IC50 in experiment [1] was more than 100 µM; on Phosphodiesterase 4 [2], 0.33 µM; at Phosphodiesterase 3, 17.5 µM.

For the compound `COc1ccc(C(=O)N[C@@H]2N=C(c3ccccc3)c3cc(C)cc4c3N(CC4)C2=O)c(OC)c1`, the IC50 at Phosphodiesterase 4 [2] is 0.96 µM; at Phosphodiesterase 3, 7.85 µM.

With `Cc1cc2c3c(c1)C(c1ccccc1)=N[C@@H](NC(=O)c1ccc(Cl)cc1Cl)C(=O)N3CC2`, the IC50 is more than 100 µM in experiment [1], 0.76 µM at Phosphodiesterase 4 [2] and 17.5 µM on Phosphodiesterase 3.

`O=C(N[C@@H]1N=C(c2ccccc2F)c2cccc3c2N(CC3)C1=O)c1cc2ccccc2[nH]1`: the IC50 on Phosphodiesterase 4 [2] and on Phosphodiesterase 3 was more than 100 µM throughout.

On to `Cc1cc2c3c(c1)C(c1ccccc1)=N[C@@H](NC(=O)c1ccncc1)C(=O)N3CC2`, for which the results for the IC50 (in experiment [1]; on Phosphodiesterase 4 [2]; on Phosphodiesterase 3) were more than 100 µM, 1.14 µM and more than 100 µM, respectively. Also, in the experiment on Canis familiaris [6], the outcome was inactive. Moreover, in the experiment with Rattus norvegicus, the ED50 is 6.9 mg/kg.

Turning to `O=C(N[C@@H]1N=C(c2ccccc2)c2cccc3c2N(CC3)C1=O)c1cc2ccccc2[nH]1`, the IC50 in experiment [1] was more than 100 µM; at Phosphodiesterase 4 [2], 4 µM; at Phosphodiesterase 3, more than 100 µM.

Take `Nc1c(Cl)cc(C(=O)N[C@@H]2N=C(c3ccccc3)c3cccc4c3N(CC4)C2=O)cc1Cl`: the IC50 in experiment [1] was more than 100 µM; at Phosphodiesterase 4 [2], 0.63 µM; at Phosphodiesterase 3, more than 100 µM.

With `COc1cc2c3c(c1)C(c1ccccc1)=N[C@@H](NC(=O)c1cc4ccccc4[nH]1)C(=O)N3CC2`, the IC50 was 100 µM in experiment [1], 0.65 µM on Phosphodiesterase 4 [2] and more than 100 µM at Phosphodiesterase 3.

(Values after ChEMBL document CHEMBL1132852, “Synthesis and structure-activity relationships of 4-oxo-1-phenyl-3,4,6,7-tetrahydro-[1,4]diazepino[6,7,1-hi]indoles: novel PDE4 inhibitors” (Bioorg Med Chem Lett, 2000).)
